Experimental data reported in ChEMBL document CHEMBL3046784, “Exploring QSAR of antiamoebic agents of isolated natural products by MLR, ANN, and RTO” (Med Chem Res, 2012).
Values after ≈ are worked out from the molar mass of the structure shown.

These molecules were tested on Entamoeba histolytica (assay: Antiamoebic activity against Entamoeba histolytica). Settings: Entamoeba histolytica; read-out: IC50.
Assay type: functional, organism-based
`CC[C@@H](C)C(=O)O[C@H]1C(=O)O[C@@H]2C[C@H]3C(C)=CC(=O)[C@@H](O)[C@]3(C)[C@H]3[C@@H](O)[C@H](O)[C@]4(C)OC[C@]32[C@@H]14` [SIMALIKALACTONE D] was tested, and the IC50 was 0.047 µg/mL (≈ 0.0982 µM). Molecule `O=C(/C=C/c1ccc(O)cc1)O[C@H]1[C@@H]2C=CO[C@@H](O[C@@H]3O[C@H](CO)[C@@H](O)[C@H](O)[C@H]3O)[C@@H]2[C@@]2(CO)O[C@@H]12` [SPECIOSIDE] has an IC50 of 0.198 µg/mL (≈ 0.39 µM). For `C/C=C1\CN2CC[C@]34c5ccccc5N5[C@@H]([C@H]6[C@@H]7N(C(C)=O)c8ccccc8[C@@]78CCN7C/C(=C\C)[C@@H]6C[C@H]78)OC[C@@H]([C@H]53)[C@H]1C[C@H]24` [STRYCHNOBILINE], the IC50 was 21.5 µg/mL (≈ 35 µM). With `C=C[C@H]1CN2CC[C@@]3(C(=O)Nc4cc(O)ccc43)[C@@H]2C[C@@H]1C[C@H]1c2[nH]c3ccccc3c2CCN1C` [STRYCHNOFOLINE] the IC50 was 25.1 µg/mL (≈ 51.9 µM). `C=C[C@H]1CN2CCc3c([nH]c4c([C@H]5CCCN5C)c(O)ccc34)[C@@H]2C[C@@H]1C[C@H]1c2[nH]c3ccccc3c2CCN1C` [STRYCHNOPENTAMINE] gave an IC50 of 7.7 µg/mL (≈ 14 µM). `COc1cc2c3cc1Oc1c(OC)c(OC)c(O)c4c1[C@H](Cc1ccc(cc1)Oc1cc(ccc1O)C[C@@H]3N(C)CC2)N(C)CC4` [THALISOPIDINE] showed an IC50 of 50 µg/mL (≈ 80 µM). With `COc1cc2c3cc1Oc1c(O)c(OC)cc4c1[C@H](Cc1ccc(O)c(c1)-c1cc(ccc1OC)C[C@H]3N(C)CC2)N(C)CC4` [TILIAGEINE] the IC50 was 19.2 µg/mL (≈ 31.6 µM). `O=C(/C=C/c1ccc(O)cc1)OC[C@H]1O[C@@H](Oc2c(-c3ccc(O)cc3)oc3cc(O)cc(O)c3c2=O)[C@H](O)[C@@H](O)[C@@H]1O` [TILIROSIDE] was tested, and the IC50 was 17.4 µg/mL (≈ 29.4 µM). `COc1ccc2cc1Oc1ccc(cc1)CC1=NCCc3cc(OC)c4c(c31)Oc1cc3c(cc1O4)CCN(C)[C@H]3C2` [TRIGILLETIMINE] gave an IC50 of 23.3 µg/mL (≈ 41.5 µM). For `CC[C@H]1CN2CCc3cc(OC)c(OC)cc3[C@@H]2C[C@@H]1C[C@H]1NCCc2c1[nH]c1ccc(O)cc21` [TUBULOSINE], the IC50 was 1.6 µg/mL (≈ 3.36 µM). For `C/C=C1/CN2CCc3c([nH]c4ccccc34)[C@@H]2C[C@@H]1Cc1nccc2c1[nH]c1ccccc12` [USAMBARENSINE], the IC50 was 0.49 µg/mL (≈ 1.13 µM). In the case of `C=C[C@H]1CN2CCc3c([nH]c4ccccc34)[C@@H]2C[C@@H]1C[C@H]1c2[nH]c3ccccc3c2CCN1C` [USAMBARINE], the IC50 is reported as 0.46 µg/mL (≈ 1.02 µM). In the case of `O=C(/C=C/c1ccc(O)c(O)c1)O[C@@H]1C2C=CO[C@H](O[C@@H]3O[C@H](CO)[C@@H](O)[C@H](O)[C@H]3O)C2[C@]2(CO)O[C@H]12` (stereo not given in full) [VERMINOSIDE], the IC50 is reported as 0.0995 µg/mL (≈ 0.19 µM). `COc1c(OC)c(O)c2c(=O)cc(-c3ccc(O)cc3)oc2c1OC` [XANTHOMICROL] was tested, and the IC50 was 275 µg/mL (≈ 798 µM). In the case of `COC(=O)[C@]12OC[C@]34[C@H]([C@@H](O)[C@@H]1O)[C@@]1(C)C=C(O[C@@H]5O[C@H](CO)[C@@H](O)[C@H](O)[C@H]5O)C(=O)[C@@H](C)[C@@H]1C[C@H]3OC(=O)[C@H](OC(C)=O)[C@@H]24` [YADANZIOSIDE F], the IC50 is reported as 2.33 µg/mL (≈ 3.63 µM).
